Reference: patent publication US20020169209A1, “Potentiation of therapeutic effects of fatty acids” (priority 2001, published 2002)

What was measured:
depression = assay: Case history: person seriously depressed for over 10 years; format: in vivo, human; settings: one patient; ibuprofen alone
Description: Because there is evidence of elevated formation of prostaglandins in depression, they were given a combined COX-1 and COX-2 inhibitor, ibuprofen. […] The ibuprofen was stopped and they were treated with ethyl-eicosapentaenoate at a dose of 1 g/day. This seemed to have a modest effect but they remained far from well.

[1] = test system: forgetfulness, possibly developing Alzheimer's disease (AD); assay: Case history: forgetful person, possible Alzheimer's disease; format: in vivo, human; settings: one patient; indomethacin alone over six months or so
Description: A person had become very forgetful and their family was concerned that they might be developing Alzheimer's disease (AD). Because there is evidence that the NSAID indomethacin may be able to slow down the progression of AD, their child, who was a doctor, prescribed indomethacin. […] Because of animal work on the beneficial effects of AA in the aging rat brain, 800 mg of AA in triglyceride form was added to the treatment regime.

Row | SMILES | effect on depression (depression) | effect on forgetfulness [1]
1 | CC(C)Cc1ccc(C(C)C(=O)O)cc1 (centres unmarked) [ibuprofen] | marginal effect but this was not apparent to observers | 
2 | COc1ccc2c(c1)c(CC(=O)O)c(C)n2C(=O)c1ccc(Cl)cc1 [indomethacin] |  | may have had a slight effect but there was no dramatic change
